Patent publication US9517994B2, “Antibacterial agents: phloroglucinol derivatives” (Rutgers, the State University of New Jersey, priority 2012, dated 2016)
pIC50: −log10 of the molar value. In brackets after ≈: the same amount, converted by molar mass.

Columns and labels:
[1] = system: Staphylococcus aureus ATCC 12600; assay: MIC, spiral gradient endpoint assay; details: ATCC12600, 16 h, read-out: MIC S. aureus 12600
[2] = system: Bacillus anthracis Vollum 1B; assay: microbe, parasite or virus in culture; assay type: cell-based; details: VOLLUM1B, read-out: MIC B. anthracis Vollum-1b
[3] = system: Haemophilus influenzae ATCC 33391; assay: MIC, spiral gradient endpoint assay (GC II agar, 5% CO2); details: ATCC33391, read-out: MIC H. influenzae 33391
[4] = molecular target: S. aureus RNA polymerase core enzyme + S. aureus σA (Staphylococcus aureus, UniProt P47768+Q2G0N5); assay: Fluorescence-detected assay of inhibition of Staphylococcus aureus RNA polymerase; assay type: biochemical; details: read-out: IC50 Sa RNAP
Protocol: (§1) Fluorescence-detected RNA polymerase assays with E. coli RNA polymerase were performed by a modification of the procedure of Kuhlman et al., 2004 (Kuhlman, P., Duff, H. & Galant, A. (2004) Anal. Biochem. 324, 183-190). Reaction mixtures contained (20 μl): 0-100 nM test compound, 75 nM E. coli RNA polymerase σ^70 holoenzyme, 20 nM 384 by DNA fragment containing the bacteriophage T4 N25 promoter, 100 μM ATP, 100 μM GTP, 100 μM UTP, 100 μM CTP, 50 mM Tris-HCl, pH 8.0, 100 mM KCl, 10 mM MgCl2, 1 mM DTT, 10 μg/ml bovine serum albumin, and 5.5% glycerol. Reaction components other than DNA and NTPs were pre-incubated for 10 mm at 37° C. Reactions were carried out by addition of DNA and incubation for 5 min at 37° C., followed by addition of NTPs and incubation for 60 min at 37° C. DNA was removed by addition of 1 μl 5 mM CaCl2 and 2 U DNaseI (Ambion, Inc.), followed by incubation for 90 min at 37° C. RNA was quantified by addition of 100 μl RiboGreen RNA Quantitation Reagent (Invitrogen, Inc.; 1:500 dilution in Tris-HCl, pH 8.0, 1 mM EDTA), followed by incubation for 10 min at 25° C., followed by measurement of fluorescence intensity [excitation wavelength=485 nm and emission wavelength=535 nm; QuantaMaster QMI spectrofluorometer (PTI, Inc.)]. IC50 was defined as the concentration of inhibitor resulting in 50% inhibition of RNA polymerase activity.
(§2) Fluorescence-detected RNA polymerase assays with S. aureus RNA polymerase were performed as in Example 17.1, using reaction mixtures containing (20 μl): 0-100 nM test compound, 75 nM S. aureus RNA polymerase core enzyme, 300 nM S. aureus σ^A, 20 nM 384 by DNA fragment containing the bacteriophage T4 N25 promoter, 100 μM ATP, 100 μM GTP, 100 μM UTP, 100 μM CTP, 40 mM Tris-HCl, pH 8.0, 80 mM NaCl, 5 mM MgCl2, 2.5 mM DTT, and 12.7% glycerol. IC50 was defined as the concentration of inhibitor resulting in 50% inhibition of RNA polymerase activity.

[5] = molecular target: E. coli RNA polymerase σ70 holoenzyme (Escherichia coli, UniProt P0A8T7+P0A8V2); assay: Fluorescence-detected assay of inhibition of Escherichia coli RNA polymerase; assay type: biochemical; details: RiboGreen fluorescence, read-out: IC50 Ec RNAP
E. coli RNA polymerase σ70 holoenzyme, sequence (P0A8V2 whole entry): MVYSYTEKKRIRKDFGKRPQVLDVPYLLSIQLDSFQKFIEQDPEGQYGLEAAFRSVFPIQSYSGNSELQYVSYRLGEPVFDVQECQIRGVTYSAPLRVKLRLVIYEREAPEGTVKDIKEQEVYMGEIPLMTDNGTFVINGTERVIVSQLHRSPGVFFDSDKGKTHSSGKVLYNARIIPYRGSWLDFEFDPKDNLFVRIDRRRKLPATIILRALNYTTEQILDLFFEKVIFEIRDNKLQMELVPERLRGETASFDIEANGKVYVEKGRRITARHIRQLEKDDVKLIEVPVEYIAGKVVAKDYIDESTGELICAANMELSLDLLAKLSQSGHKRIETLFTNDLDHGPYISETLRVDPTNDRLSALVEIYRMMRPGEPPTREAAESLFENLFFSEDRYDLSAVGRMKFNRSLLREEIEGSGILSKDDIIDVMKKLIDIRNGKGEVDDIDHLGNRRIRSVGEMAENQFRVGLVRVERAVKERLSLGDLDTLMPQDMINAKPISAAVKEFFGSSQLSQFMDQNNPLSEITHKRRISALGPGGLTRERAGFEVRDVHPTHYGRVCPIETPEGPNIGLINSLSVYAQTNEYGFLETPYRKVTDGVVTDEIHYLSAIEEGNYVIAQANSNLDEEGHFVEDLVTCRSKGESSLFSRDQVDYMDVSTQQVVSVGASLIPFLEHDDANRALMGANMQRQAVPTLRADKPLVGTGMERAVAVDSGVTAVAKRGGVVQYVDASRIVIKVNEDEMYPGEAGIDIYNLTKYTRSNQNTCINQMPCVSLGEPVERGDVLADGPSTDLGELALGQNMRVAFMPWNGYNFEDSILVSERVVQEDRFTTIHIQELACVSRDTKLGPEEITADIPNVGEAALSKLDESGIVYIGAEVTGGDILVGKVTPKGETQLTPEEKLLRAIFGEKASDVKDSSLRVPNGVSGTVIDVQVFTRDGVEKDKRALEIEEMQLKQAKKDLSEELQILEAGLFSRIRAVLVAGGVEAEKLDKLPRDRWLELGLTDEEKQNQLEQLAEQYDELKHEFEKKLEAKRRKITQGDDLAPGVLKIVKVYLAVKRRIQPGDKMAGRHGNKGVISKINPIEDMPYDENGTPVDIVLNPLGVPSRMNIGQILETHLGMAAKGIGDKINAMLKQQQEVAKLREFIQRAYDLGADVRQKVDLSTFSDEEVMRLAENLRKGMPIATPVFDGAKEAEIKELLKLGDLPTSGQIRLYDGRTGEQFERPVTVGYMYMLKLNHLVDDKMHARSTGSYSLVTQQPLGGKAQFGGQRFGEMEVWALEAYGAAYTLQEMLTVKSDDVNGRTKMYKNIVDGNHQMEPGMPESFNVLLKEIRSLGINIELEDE
E. coli RNA polymerase σ70 holoenzyme, sequence (P0A8T7 whole entry): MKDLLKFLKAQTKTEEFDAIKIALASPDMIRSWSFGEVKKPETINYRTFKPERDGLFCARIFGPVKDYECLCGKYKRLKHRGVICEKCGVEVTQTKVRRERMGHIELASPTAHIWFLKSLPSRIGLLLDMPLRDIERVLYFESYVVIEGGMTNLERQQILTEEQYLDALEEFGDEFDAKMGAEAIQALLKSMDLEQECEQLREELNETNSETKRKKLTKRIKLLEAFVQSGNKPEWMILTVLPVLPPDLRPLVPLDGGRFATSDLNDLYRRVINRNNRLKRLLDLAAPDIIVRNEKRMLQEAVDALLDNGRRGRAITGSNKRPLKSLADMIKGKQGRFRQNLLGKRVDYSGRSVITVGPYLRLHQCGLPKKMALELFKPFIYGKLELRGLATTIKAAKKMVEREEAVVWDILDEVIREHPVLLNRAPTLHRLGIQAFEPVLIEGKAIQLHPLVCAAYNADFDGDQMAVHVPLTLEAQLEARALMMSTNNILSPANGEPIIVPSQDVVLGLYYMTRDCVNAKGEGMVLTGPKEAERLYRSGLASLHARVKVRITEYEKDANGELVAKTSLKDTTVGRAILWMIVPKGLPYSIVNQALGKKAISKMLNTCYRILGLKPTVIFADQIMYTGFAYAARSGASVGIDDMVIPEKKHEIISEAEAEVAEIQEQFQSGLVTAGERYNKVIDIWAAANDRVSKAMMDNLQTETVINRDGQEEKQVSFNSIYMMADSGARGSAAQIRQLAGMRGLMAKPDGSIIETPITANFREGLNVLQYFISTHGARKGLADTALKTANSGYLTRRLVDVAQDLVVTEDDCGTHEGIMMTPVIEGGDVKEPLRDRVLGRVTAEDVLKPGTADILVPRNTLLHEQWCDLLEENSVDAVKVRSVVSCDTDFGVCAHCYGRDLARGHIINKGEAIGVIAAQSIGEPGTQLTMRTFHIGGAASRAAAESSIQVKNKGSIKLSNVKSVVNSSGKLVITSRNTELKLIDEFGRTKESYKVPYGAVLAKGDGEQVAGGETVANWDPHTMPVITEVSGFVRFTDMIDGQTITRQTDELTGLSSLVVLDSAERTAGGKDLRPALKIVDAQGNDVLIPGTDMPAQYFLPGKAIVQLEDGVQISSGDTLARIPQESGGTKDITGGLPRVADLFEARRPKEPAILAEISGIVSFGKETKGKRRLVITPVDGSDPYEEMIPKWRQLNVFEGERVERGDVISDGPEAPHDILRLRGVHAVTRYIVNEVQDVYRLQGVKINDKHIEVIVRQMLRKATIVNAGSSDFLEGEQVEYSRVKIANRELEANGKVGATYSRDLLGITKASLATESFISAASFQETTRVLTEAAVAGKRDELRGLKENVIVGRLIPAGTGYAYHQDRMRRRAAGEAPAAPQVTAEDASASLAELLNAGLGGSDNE
E. coli RNA polymerase σ70 holoenzyme, sequence (P0A7Z4 whole entry partner): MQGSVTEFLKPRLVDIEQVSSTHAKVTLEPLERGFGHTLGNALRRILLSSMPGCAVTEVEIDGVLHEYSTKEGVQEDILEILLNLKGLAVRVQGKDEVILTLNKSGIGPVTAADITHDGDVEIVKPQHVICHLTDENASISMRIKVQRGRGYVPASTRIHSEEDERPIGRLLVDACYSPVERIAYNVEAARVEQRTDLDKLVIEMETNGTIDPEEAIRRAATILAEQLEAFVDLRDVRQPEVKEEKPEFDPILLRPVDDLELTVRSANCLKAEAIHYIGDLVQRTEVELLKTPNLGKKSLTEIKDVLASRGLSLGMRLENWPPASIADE
E. coli RNA polymerase σ70 holoenzyme, sequence (P0A800 whole entry partner): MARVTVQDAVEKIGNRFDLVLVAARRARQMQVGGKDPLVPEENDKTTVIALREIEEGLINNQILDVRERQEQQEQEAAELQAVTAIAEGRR
E. coli RNA polymerase σ70 holoenzyme, sequence (P00579 whole entry partner): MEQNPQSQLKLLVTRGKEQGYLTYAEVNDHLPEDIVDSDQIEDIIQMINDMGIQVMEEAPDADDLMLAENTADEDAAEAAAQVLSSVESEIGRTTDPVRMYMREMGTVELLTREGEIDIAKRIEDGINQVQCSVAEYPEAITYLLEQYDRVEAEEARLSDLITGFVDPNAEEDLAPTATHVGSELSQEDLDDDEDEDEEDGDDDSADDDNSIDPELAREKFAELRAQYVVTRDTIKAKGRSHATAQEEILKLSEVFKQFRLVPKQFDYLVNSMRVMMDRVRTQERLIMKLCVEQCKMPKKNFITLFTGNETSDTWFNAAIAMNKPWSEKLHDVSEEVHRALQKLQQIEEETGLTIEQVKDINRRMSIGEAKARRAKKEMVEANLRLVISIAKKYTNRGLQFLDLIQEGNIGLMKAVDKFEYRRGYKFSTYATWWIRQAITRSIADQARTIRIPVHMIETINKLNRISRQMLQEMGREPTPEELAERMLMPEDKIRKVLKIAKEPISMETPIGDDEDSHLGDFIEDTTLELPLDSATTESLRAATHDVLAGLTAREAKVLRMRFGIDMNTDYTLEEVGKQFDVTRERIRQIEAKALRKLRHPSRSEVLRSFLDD
Protocol: as §1

Burkholderia mallei CHN7 = assay: microbe, parasite or virus in culture; assay type: cell-based; details: CHN7, read-out: MIC B. mallei CHN7
[6] = system: Mycobacterium tuberculosis H37Rv; assay: MIC, microplate Alamar Blue assay; details: read-out: MIC M. tuberculosis H37Rv
[7] = system: Enterococcus faecalis ATCC 19433; assay: MIC, spiral gradient endpoint assay; details: ATCC19433, 16 h, read-out: MIC E. faecalis 19433
[8] = system: Moraxella catarrhalis ATCC 25238; assay: MIC, spiral gradient endpoint assay (GC II agar, 5% CO2); details: ATCC25238, read-out: MIC M. catarrhalis 25238
H. influenzae 49247 = assay: as above; details: for MIC: Haemophilus influenzae, 49247, read-out: MIC H. influenzae 49247
[9] = system: Escherichia coli D21f2tolC; assay: MIC, spiral gradient endpoint assay; details: 16 h, read-out: MIC E. coli D21f2tolC
[10] = system: Francisella tularensis SCHU4; assay: microbe, parasite or virus in culture; assay type: cell-based; details: SCHU4, read-out: MIC F. tularensis SCHU4
[11] = molecular target: M tuberculosis RNA polymerase core enzyme + M. tuberculosis σA (Mycobacterium tuberculosis, UniProt P9WGY7+P9WGY9); assay: Fluorescence-detected assay of inhibition of Mycobacterium tuberculosis RNA polymerase; assay type: biochemical; details: read-out: IC50 Mt RNAP
Protocol: as §1
as §2, with “assays with M tuberculosis RNA polymerase” for “assays with S. aureus RNA polymerase”, “75 nM M tuberculosis RNA polymerase” for “75 nM S. aureus RNA polymerase”, “300 nM M. tuberculosis σ^A, 20” for “300 nM S. aureus σ^A, 20”

SMILES	MIC [1]	MIC [2]	MIC [3]	pIC50 [4]	pIC50 [5]	MIC (Burkholderia mallei CHN7)	MIC [6]	MIC [7]	MIC [8]	MIC50 (H. influenzae 49247; Haemophilus influenzae, 49247, read-out: MIC50 H. influenzae 49247)	MIC [9]	MIC [10]	pIC50 [11]	MIC (H. influenzae 49247)
O=C(CCc1ccccc1Cl)c1c(O)cc(O)cc1O [0MTK11, 3-(2-chlorophenyl)propanoyl-phloroglucinol]	16 µg/mL (≈ 54.7 µM)	6.25 µg/mL (≈ 21.4 µM)	> 40 µg/mL	4.96	5.46	50 µg/mL (≈ 171 µM)	> 50 µg/mL	> 40 µg/mL	> 40 µg/mL	35 µg/mL (≈ 120 µM)	8 µg/mL (≈ 27.3 µM)	3.12 µg/mL (≈ 10.7 µM)	5.60	
O=C(CCc1cccc(Cl)c1)c1c(O)cc(O)cc1O [0MTK12, 3-(3-chlorophenyl)propanoyl-phloroglucinol]	16 µg/mL (≈ 54.7 µM)	12.5 µg/mL (≈ 42.7 µM)	> 40 µg/mL	5.05	5.59	50 µg/mL (≈ 171 µM)	50 µg/mL (≈ 171 µM)	32 µg/mL (≈ 109 µM)	> 40 µg/mL		6 µg/mL (≈ 20.5 µM)	3.12 µg/mL (≈ 10.7 µM)	5.32	> 40 µg/mL
O=C(CCc1ccc(Cl)cc1)c1c(O)cc(O)cc1O [0MTK13, 3-(4-chlorophenyl)propanoyl-phloroglucinol]	4 µg/mL (≈ 13.7 µM)	6.25 µg/mL (≈ 21.4 µM)	32 µg/mL (≈ 109 µM)	5.37	5.96	12.5 µg/mL (≈ 42.7 µM)	25 µg/mL (≈ 85.4 µM)	11 µg/mL (≈ 37.6 µM)	32 µg/mL (≈ 109 µM)		2.7 µg/mL (≈ 9.22 µM)	3.12 µg/mL (≈ 10.7 µM)	5.64	32 µg/mL (≈ 109 µM)
CCc1ccc(CCC(=O)c2c(O)cc(O)cc2O)cc1 [0MTK26, 3-(4-ethylphenyl)propanoyl-phloroglucinol]	12.5 µg/mL (≈ 43.7 µM)			5.27	5.82			36 µg/mL (≈ 126 µM)			6.2 µg/mL (≈ 21.7 µM)		5.44	
CC(C)c1ccc(CCC(=O)c2c(O)cc(O)cc2O)cc1 [0MTK27, 3-(4-isopropylphenyl)propanoyl-phloroglucinol]	9.8 µg/mL (≈ 32.6 µM)			5.27	5.64			16 µg/mL (≈ 53.3 µM)			4.3 µg/mL (≈ 14.3 µM)		5.31	
CC(C)(C)c1ccc(CCC(=O)c2c(O)cc(O)cc2O)cc1 [0MTK28, 3-((4-tert-butyl)phenyl)propanoyl-phloroglucinol]	6.9 µg/mL (≈ 21.9 µM)			5.19	5.57			11 µg/mL (≈ 35 µM)			3 µg/mL (≈ 9.54 µM)		5.34	
Cc1cc(F)ccc1CCC(=O)c1c(O)cc(O)cc1O [0MTK30, 3-(4-fluoro-2-methylphenyl)propanoyl-phloroglucinol]	16 µg/mL (≈ 55.1 µM)			5.39	5.74			26 µg/mL (≈ 89.6 µM)			7 µg/mL (≈ 24.1 µM)		5.43	
O=C(CCc1ccccc1C(F)(F)F)c1c(O)cc(O)cc1O [0MTK31, 3-(2-(trifluoromethyl)phenyl)propanoyl-phloroglucinol]	14 µg/mL (≈ 42.9 µM)			5.32	5.72			22 µg/mL (≈ 67.4 µM)			6 µg/mL (≈ 18.4 µM)		5.46	
O=C(CCc1ccc(C(F)(F)F)cc1C(F)(F)F)c1c(O)cc(O)cc1O [0MTK32, 3-(2,4-bis(trifluoromethyl)phenyl)propanoyl-phloroglucinol]	3.6 µg/mL (≈ 9.13 µM)			5.43	5.70			6.6 µg/mL (≈ 16.7 µM)			2.2 µg/mL (≈ 5.58 µM)		5.48	
COc1ccccc1CCC(=O)c1c(O)cc(O)cc1O [OMTK14, 3-(2-methoxyphenyl)propanoyl-phloroglucinol]	> 40 µg/mL	25 µg/mL (≈ 86.7 µM)	> 40 µg/mL	5.14	5.57	> 50 µg/mL	> 50 µg/mL	> 40 µg/mL	> 40 µg/mL		12 µg/mL (≈ 41.6 µM)	12.5 µg/mL (≈ 43.4 µM)	5.00	> 40 µg/mL
COc1cccc(CCC(=O)c2c(O)cc(O)cc2O)c1 [OMTK15, 3-(3-methoxyphenyl)propanoyl-phloroglucinol]	> 40 µg/mL	25 µg/mL (≈ 86.7 µM)	> 40 µg/mL	5.14	5.52	> 50 µg/mL	50 µg/mL (≈ 173 µM)	> 40 µg/mL	> 40 µg/mL		12 µg/mL (≈ 41.6 µM)	12.5 µg/mL (≈ 43.4 µM)	5.52	> 40 µg/mL
Cc1ccccc1CCC(=O)c1c(O)cc(O)cc1O [OMTK18, 3-(2-methylphenyl)propanoyl-phloroglucinol]	> 40 µg/mL			5.10	5.57			> 40 µg/mL			11 µg/mL (≈ 40.4 µM)		5.41	
O=C(CCc1ccc(F)cc1)c1c(O)cc(O)cc1O [OMTK21, 3-(4-fluorophenyl)propanoyl-phloroglucinol]	> 40 µg/mL			5.14	5.62			> 40 µg/mL			10 µg/mL (≈ 36.2 µM)		5.36	
O=C(CCc1ccc(Br)cc1)c1c(O)cc(O)cc1O [OMTK22, 3-(4-bromophenyl)propanoyl-phloroglucinol]	10 µg/mL (≈ 29.7 µM)			5.43	5.89			22 µg/mL (≈ 65.2 µM)			5 µg/mL (≈ 14.8 µM)		5.77	
O=C(CCc1ccc(C(F)(F)F)cc1)c1c(O)cc(O)cc1O [OMTK23, 3-(4-trifluoromethylphenyl)propanoyl-phloroglucinol]	12 µg/mL (≈ 36.8 µM)			5.32	5.80			25 µg/mL (≈ 76.6 µM)			5 µg/mL (≈ 15.3 µM)		5.64	
